Source: article PMC2902711 (Toxicon : official journal of the International Society on …, 2010)
Where two headings read alike, the source gives them in different places.

Tests used:
RTA = details: read-out: IC50 for RTA; cited from earlier work
Vero cells = details: for concentrations at which the compound was itself cytotoxic: African green monkey
[1] = molecular target: Shiga toxin type 1 subunit A (StxA1) (Bacteriophage H30, UniProt P10149); assay: biochemical; format: biochemical, Escherichia coli
Shiga toxin type 1 subunit A (StxA1), sequence (P10149 23-273 limits assumed): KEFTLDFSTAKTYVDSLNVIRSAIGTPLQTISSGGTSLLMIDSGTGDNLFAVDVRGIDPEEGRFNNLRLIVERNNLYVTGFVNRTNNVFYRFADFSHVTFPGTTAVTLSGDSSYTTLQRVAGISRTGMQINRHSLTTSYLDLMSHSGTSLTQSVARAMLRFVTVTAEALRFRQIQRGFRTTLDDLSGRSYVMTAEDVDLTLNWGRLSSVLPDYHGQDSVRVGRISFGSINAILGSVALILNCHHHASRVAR

Compound	IC50 (RTA) [µM]	concentrations at which the compound was itself cytotoxic (Vero cells)	other results
Nc1cc(O)c(N)c(O)n1 [DDP, 2,5-diamino-4-6-dihydroxypyridine]	2200	–	–
Nc1nc2ncc(CNc3ccc(C(=O)O)cc3)nc2c(=O)[nH]1 [pteroic acid (PTA), pteroic acid]	~600	–	–
COC(=O)C(C)N1C(=O)S/C(=C/c2ccc(N3CCCCCC3)o2)C1=O (stereo not drawn) [Compound 3, methyl 2-[(5E)-5-[[5-(azepan-1-yl)furan-2-yl]methylidene]-2,4-dioxo-1,3-thiazolidin-3-yl]propanoate]	–	less than 20 μM	–
CC(C)Nc1nc(C#N)nc(NC(C)C)n1 [Compound 2, 4,6-bis(propan-2-ylamino)-1,3,5-triazine-2-carbonitrile]	–	–	cytotoxicity of the compound itself (Vero cells): moderately cytotoxic
O=C(OCc1ccc(F)cc1)c1cc(-c2ccco2)nc2ccccc12 [Compound 8, 4-fluorophenyl methyl 2-(furan-2-yl)quinoline-4-carboxylate]	–	–	IC50 ([1]; read-out: StxA1 IC50): 40 µM; IC50 ([1]; read-out: apparent IC50 for StxA1): ~40 µM
O=C(CSc1nnc[nH]1)N(Cc1ccc(F)cc1)C1CCCCC1 [Compound C17-1, N-cyclohexyl-N-[(4-fluorophenyl)methyl]-2-(4H-1,2,4-triazol-3-ylsulfanyl)acetamide]	–	> 100 µM	IC50 [1]: 500 µM
Cc1ccc(/C=C/C(=O)NC2CCCc3ccccc32)o1 (stereo not drawn) [Compound 1, (E)-3-(5-methylfuran-2-yl)-N-(1,2,3,4-tetrahydronaphthalen-1-yl)prop-2-enamide]	–	–	cytotoxicity of the compound itself (Vero cells): did not exhibit significant cytotoxicity; IC50 [1]: ~700 µM
Cc1nc2c(=O)[nH]c(N)nc2o1 [8-methyl-9-oxaguanine]	~400	–	–
CS(=O)(=O)c1nc2ccccc2n1Cc1cccc2ccccc12 [Compound 4, 2-methylsulfonyl-1-(naphthalen-1-ylmethyl)benzimidazole]	–	> 30 µM	–
